biological target: human IRE-1α (GST-IRE-1α) (Homo sapiens (Human), UniProt O75460); assay: IRE-1α assay (cleavage of mini-XBP-1 mRNA stem-loop substrate); format: biochemical; details: average IC50 for inhibition of IRE-1α in vitro
Experimental: A fusion protein comprising glutathione S transferase (GST) and human IRE-1α (GST-IRE-1α) obtained from a 500 ml baculovirus-infected insect cell culture can be used to measure IRE-1α activity in vitro. Five μl of a reaction mixture comprising 1× reaction buffer (5× reaction buffer is 100 mM Hepes pH 7.5, 250 mM KOAc, 2.5 mM MgCl2), 3 mM DTT, and 0.4% polyethylene glycol water is added to each well of 384 well plates. Twenty-five nanoliters of a 1 mM test compound solution are added to test wells. […] Negative control wells contain only reaction mixture and test compound. After spinning the plates at 1200 rpm for 30 seconds, 3 μl of an IRE-1α human mini-XBP-1 mRNA stem-loop substrate [NT] ID NO:1), labeled with the fluorescent dye Cy5 at the [NT] end, are added to each well of a control plate. The plates are again spun at 1200 rpm for 30 seconds. […] The plates are covered with lids and incubated for one hour at 30° C. The plates are then transferred to an […] microplate reader. Data is analyzed using data analysis software, and the percent activity of IRE-1α is calculated.

Sequence of human IRE-1α (GST-IRE-1α) (O75460 19-977): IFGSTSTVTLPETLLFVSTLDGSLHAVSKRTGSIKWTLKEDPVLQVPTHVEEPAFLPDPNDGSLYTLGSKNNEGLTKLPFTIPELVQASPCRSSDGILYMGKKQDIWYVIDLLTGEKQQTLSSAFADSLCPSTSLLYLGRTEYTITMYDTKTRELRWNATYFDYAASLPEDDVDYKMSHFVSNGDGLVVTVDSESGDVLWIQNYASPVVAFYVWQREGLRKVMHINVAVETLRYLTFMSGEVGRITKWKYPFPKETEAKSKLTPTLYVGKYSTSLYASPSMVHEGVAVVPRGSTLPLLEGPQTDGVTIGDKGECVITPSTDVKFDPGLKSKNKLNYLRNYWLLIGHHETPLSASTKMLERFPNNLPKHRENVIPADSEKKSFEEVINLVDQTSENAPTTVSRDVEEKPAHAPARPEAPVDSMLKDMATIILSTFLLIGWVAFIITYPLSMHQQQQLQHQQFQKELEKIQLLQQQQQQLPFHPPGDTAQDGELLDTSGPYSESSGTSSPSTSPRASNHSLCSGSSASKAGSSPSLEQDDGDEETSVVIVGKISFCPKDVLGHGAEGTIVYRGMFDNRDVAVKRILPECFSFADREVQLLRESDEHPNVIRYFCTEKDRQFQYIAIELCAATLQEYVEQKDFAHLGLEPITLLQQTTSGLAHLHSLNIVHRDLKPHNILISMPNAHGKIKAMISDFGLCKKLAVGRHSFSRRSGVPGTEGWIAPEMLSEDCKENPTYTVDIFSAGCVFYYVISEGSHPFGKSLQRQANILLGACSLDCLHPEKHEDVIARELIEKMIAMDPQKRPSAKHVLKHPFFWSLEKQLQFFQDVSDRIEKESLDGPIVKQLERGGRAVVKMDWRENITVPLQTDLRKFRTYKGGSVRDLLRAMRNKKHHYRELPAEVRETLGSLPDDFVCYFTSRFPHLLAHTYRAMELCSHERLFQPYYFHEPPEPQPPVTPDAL

| Structure (SMILES) | IC50 [nM] |
| --- | --- |
| Cc1nc(-c2ccc3c(C=O)c(O)ccc3c2)sc1C(=O)N1CCCC1 [Compound 140] | < 100 |
| Cc1cc(C(=O)N2CCN(C)CC2)sc1-c1ccc2c(C=O)c(O)ccc2c1 [Compound 34] | < 100 |
| O=Cc1c(O)ccc2cc(N3CCN(C4CCNCC4)CC3)ccc12 [Compound 113] | > 1000 |
| CN1CCC(NC(=O)c2ccc(-c3ccc4c(C=O)c(O)ccc4c3)cc2)CC1 [Compound 143] | > 1000 |
| CN1CCN(C(=O)c2ccc(-c3ccc4c(C=O)c(O)ccc4c3)cc2)CC1 [Compound 5] | < 100 |
| CC(=O)NC1CCN(c2ccc3ccc(O)c(C=O)c3c2)C1 (centres unmarked) [Compound 156] | > 1000 |
| COCCNC(=O)c1ccc(-c2ccc3c(C=O)c(O)ccc3c2)cc1 [Compound 10] | < 1000 |
| O=Cc1c(O)ccc2cc(-c3cccc(C(=O)N4CCCC4)c3)ccc12 [Compound 1] | < 100 |
| Cc1nc(-c2ccc3c(C=O)c(O)ccc3c2)sc1C(=O)N1CCN(C)CC1 [Compound 65] | < 100 |
| O=Cc1c(O)ccc2cc(-c3ccc(C(=O)NCCN4CCOCC4)s3)ccc12 [Compound 36] | < 100 |
| O=Cc1c(O)ccc2cc(-c3ccc(C(=O)NCCN4CCOCC4)o3)ccc12 [Compound 71] | < 100 |
| COCCNC(=O)c1ccc(-c2ccc3c(C=O)c(O)ccc3c2)s1 [Compound 15] | < 1000 |
| O=Cc1c(O)ccc2cc(N3CCC(C(=O)N4CCOCC4)CC3)ccc12 [Compound 110] | < 1000 |
| CN(Cc1ccncc1)C(=O)C1CCN(c2ccc3c(C=O)c(O)ccc3c2)C1 (centres unmarked) [Compound 158] | < 1000 |
| O=Cc1c(O)ccc2cc(N3CCCC(NCc4ccccc4)C3)ccc12 (centres unmarked) [Compound 98] | 1000 |
| CN(C)CCNC(=O)c1ccc(-c2ccc3c(C=O)c(O)ccc3c2)s1 [Compound 72] | < 100 |

| Structure (SMILES) | IC50 [nM] |
| --- | --- |
| CN(Cc1ccccc1)C(=O)C1CCN(c2ccc3ccc(O)c(C=O)c3c2)C1 (centres unmarked) [Compound 134] | > 1000 |
| COCCNC(=O)c1cccc(-c2ccc3c(C=O)c(O)ccc3c2)n1 [Compound 6] | < 100 |
| CS(=O)(=O)N1CCN(c2ccc3c(C=O)c(O)ccc3c2)CC1 [Compound 92, 2-Hydroxy-6-(4-methanesulfonyl-piperazin-1-yl)-naphthalene-1-carbaldehyde] | > 1000 |
| NCCN1CCN(C(=O)c2ccc(-c3ccc4c(C=O)c(O)ccc4c3)s2)CC1 [Compound 55] | < 1000 |
| O=Cc1c(O)ccc2ccc(N3CCC(C(=O)N4CCOCC4)C3)cc12 (centres unmarked) [Compound 149] | > 1000 |
| CN1CCN(C2CCN(c3ccc4ccc(O)c(C=O)c4c3)C2)CC1 (centres unmarked) [Compound 138] | > 1000 |
| CC(C)N1CCN(c2ccc3ccc(O)c(C=O)c3c2)CC1 [Compound 159] | > 1000 |
| CN(C)C(=O)c1ccc(-c2ccc3c(C=O)c(O)ccc3c2)o1 [Compound 35] | < 100 |
| Cc1cc(C(=O)N2CCOCC2)sc1-c1ccc2c(C=O)c(O)ccc2c1 [Compound 25] | < 100 |
| O=Cc1c(O)ccc2cc(-c3ccc(C(=O)NC4CCCNC4)cc3)ccc12 (centres unmarked) [Compound 49] | < 100 |
| CN(Cc1ccncc1)C1CCN(c2ccc3c(C=O)c(O)ccc3c2)C1 (centres unmarked) [Compound 147] | > 1000 |
| COCCNC(=O)c1cccc(-c2ccc3c(C=O)c(O)ccc3c2)c1 [Compound 4] | < 100 |
| CN1CCN(C(=O)c2cc(-c3ccc4c(C=O)c(O)ccc4c3)ccn2)CC1 [Compound 66] | < 1000 |
| O=Cc1c(O)ccc2cc(-c3ccc(C(=O)N4CCNCC4)s3)ccc12 [Compound 53] | < 1000 |
| O=Cc1c(O)ccc2cc(-c3cccc(C(=O)N4CCCC4)n3)ccc12 [Compound 14] | < 100 |

system: IRE-1α-mediated XBP-1 splicing in human myeloma MM.1s cells; assay: Cellular XBP-1 splicing assay in myeloma cells (RT-PCR); format: cell-based; details: Homo sapiens, MM1.S; average EC50, endogenous XBP-1 splicing in myeloma cells, DTT stress
Experimental: After an additional 45 minutes (2 hours total) with compound and DTT, the cells are harvested with TRIZOL® (a mono-phasic solution of phenol and guanidine isothiocyanate), and total RNA is prepared as directed by the manufacturer (Invitrogen). Human XBP-1 is amplified by RT-PCR with the following primers, which flank the 26 base unconventional intron excised by IRE-1α:
RT-PCR of unstressed (U) cells then generates the upper band. When cells are stressed (S) with the endoplasmic reticulum (ER) stressing agent DTT, IRE-1α is activated due to accumulating unfolded protein and the resulting RT-PCR product is 26 base pairs shorter.
Compounds which pass specificity assays are assayed for cellular EC50 using endogenous XBP-1 splicing in myeloma cells. XBP-1 is regulated through the excision of a 26 nucleotide intron from the XBP-1 mRNA by the highly specific endoribonuclease activity of IRE-1α. […] This splicing event is used to measure IRE-1α activity on XBP-1 mRNA in cells and tissues.
Briefly, compounds are incubated in the presence or absence of an ER stress agent (e.g., DTT), and the ratio of XBP-1u (unspliced) to XBP-1s (spliced) is quantified by RT-PCR.

| Structure (SMILES) | EC50 [nM] |
| --- | --- |
| Cc1nc(-c2ccc3c(C=O)c(O)ccc3c2)sc1C(=O)N1CCCC1 [Compound 140] | < 10000 |
| Cc1cc(C(=O)N2CCN(C)CC2)sc1-c1ccc2c(C=O)c(O)ccc2c1 [Compound 34] | < 10000 |
| O=Cc1c(O)ccc2cc(N3CCN(C4CCNCC4)CC3)ccc12 [Compound 113] | > 10000 |
| CN1CCC(NC(=O)c2ccc(-c3ccc4c(C=O)c(O)ccc4c3)cc2)CC1 [Compound 143] | < 10000 |
| CN1CCN(C(=O)c2ccc(-c3ccc4c(C=O)c(O)ccc4c3)cc2)CC1 [Compound 5] | < 10000 |
| CC(=O)NC1CCN(c2ccc3ccc(O)c(C=O)c3c2)C1 (centres unmarked) [Compound 156] | > 10000 |
| COCCNC(=O)c1ccc(-c2ccc3c(C=O)c(O)ccc3c2)cc1 [Compound 10] | < 10000 |
| O=Cc1c(O)ccc2cc(-c3cccc(C(=O)N4CCCC4)c3)ccc12 [Compound 1] | < 10000 |
| Cc1nc(-c2ccc3c(C=O)c(O)ccc3c2)sc1C(=O)N1CCN(C)CC1 [Compound 65] | < 10000 |
| O=Cc1c(O)ccc2cc(-c3ccc(C(=O)NCCN4CCOCC4)s3)ccc12 [Compound 36] | < 10000 |
| O=Cc1c(O)ccc2cc(-c3ccc(C(=O)NCCN4CCOCC4)o3)ccc12 [Compound 71] | < 10000 |
| COCCNC(=O)c1ccc(-c2ccc3c(C=O)c(O)ccc3c2)s1 [Compound 15] | > 10000 |
| O=Cc1c(O)ccc2cc(N3CCC(C(=O)N4CCOCC4)CC3)ccc12 [Compound 110] | > 10000 |
| CN(Cc1ccncc1)C(=O)C1CCN(c2ccc3c(C=O)c(O)ccc3c2)C1 (centres unmarked) [Compound 158] | > 10000 |
| O=Cc1c(O)ccc2cc(N3CCCC(NCc4ccccc4)C3)ccc12 (centres unmarked) [Compound 98] | < 10000 |
| CN(C)CCNC(=O)c1ccc(-c2ccc3c(C=O)c(O)ccc3c2)s1 [Compound 72] | < 10000 |

| Structure (SMILES) | EC50 [nM] |
| --- | --- |
| CN(Cc1ccccc1)C(=O)C1CCN(c2ccc3ccc(O)c(C=O)c3c2)C1 (centres unmarked) [Compound 134] | > 10000 |
| COCCNC(=O)c1cccc(-c2ccc3c(C=O)c(O)ccc3c2)n1 [Compound 6] | > 10000 |
| CS(=O)(=O)N1CCN(c2ccc3c(C=O)c(O)ccc3c2)CC1 [Compound 92, 2-Hydroxy-6-(4-methanesulfonyl-piperazin-1-yl)-naphthalene-1-carbaldehyde] | > 10000 |
| NCCN1CCN(C(=O)c2ccc(-c3ccc4c(C=O)c(O)ccc4c3)s2)CC1 [Compound 55] | < 10000 |
| O=Cc1c(O)ccc2ccc(N3CCC(C(=O)N4CCOCC4)C3)cc12 (centres unmarked) [Compound 149] | > 10000 |
| CN1CCN(C2CCN(c3ccc4ccc(O)c(C=O)c4c3)C2)CC1 (centres unmarked) [Compound 138] | > 10000 |
| CC(C)N1CCN(c2ccc3ccc(O)c(C=O)c3c2)CC1 [Compound 159] | > 10000 |
| CN(C)C(=O)c1ccc(-c2ccc3c(C=O)c(O)ccc3c2)o1 [Compound 35] | < 10000 |
| Cc1cc(C(=O)N2CCOCC2)sc1-c1ccc2c(C=O)c(O)ccc2c1 [Compound 25] | > 10000 |
| O=Cc1c(O)ccc2cc(-c3ccc(C(=O)NC4CCCNC4)cc3)ccc12 (centres unmarked) [Compound 49] | < 10000 |
| CN(Cc1ccncc1)C1CCN(c2ccc3c(C=O)c(O)ccc3c2)C1 (centres unmarked) [Compound 147] | > 10000 |
| COCCNC(=O)c1cccc(-c2ccc3c(C=O)c(O)ccc3c2)c1 [Compound 4] | < 10000 |
| CN1CCN(C(=O)c2cc(-c3ccc4c(C=O)c(O)ccc4c3)ccn2)CC1 [Compound 66] | < 10000 |
| O=Cc1c(O)ccc2cc(-c3ccc(C(=O)N4CCNCC4)s3)ccc12 [Compound 53] | < 10000 |
| O=Cc1c(O)ccc2cc(-c3cccc(C(=O)N4CCCC4)n3)ccc12 [Compound 14] | < 10000 |
